Test results from patent publication US20260070899A1, “N-(2-(4-CYANOTHIAZOLIDIN-3-YL)-2-OXOETHYL)-QUINOLINE-4-CARBOXAMIDES” (AstraZeneca AB, priority 2022, published 2026).

Legend:
FAP Mouse Plasma = target: T1, FAP Mouse Plasma (Mus musculus, UniProt P97321); experiment: FAP plasma inhibition assay, mouse plasma; format: biochemical; conditions: mouse plasma dilution 1:67, Ala-Pro-AMC 75 μM; n = 1
T1 construct: Plasma (anticoagulant K2EDTA) was used as the enzyme source; tissue AZ AST Biobank; host or cells: mouse plasma (K2EDTA)
T1 sequence (P97321 24-761 limits assumed): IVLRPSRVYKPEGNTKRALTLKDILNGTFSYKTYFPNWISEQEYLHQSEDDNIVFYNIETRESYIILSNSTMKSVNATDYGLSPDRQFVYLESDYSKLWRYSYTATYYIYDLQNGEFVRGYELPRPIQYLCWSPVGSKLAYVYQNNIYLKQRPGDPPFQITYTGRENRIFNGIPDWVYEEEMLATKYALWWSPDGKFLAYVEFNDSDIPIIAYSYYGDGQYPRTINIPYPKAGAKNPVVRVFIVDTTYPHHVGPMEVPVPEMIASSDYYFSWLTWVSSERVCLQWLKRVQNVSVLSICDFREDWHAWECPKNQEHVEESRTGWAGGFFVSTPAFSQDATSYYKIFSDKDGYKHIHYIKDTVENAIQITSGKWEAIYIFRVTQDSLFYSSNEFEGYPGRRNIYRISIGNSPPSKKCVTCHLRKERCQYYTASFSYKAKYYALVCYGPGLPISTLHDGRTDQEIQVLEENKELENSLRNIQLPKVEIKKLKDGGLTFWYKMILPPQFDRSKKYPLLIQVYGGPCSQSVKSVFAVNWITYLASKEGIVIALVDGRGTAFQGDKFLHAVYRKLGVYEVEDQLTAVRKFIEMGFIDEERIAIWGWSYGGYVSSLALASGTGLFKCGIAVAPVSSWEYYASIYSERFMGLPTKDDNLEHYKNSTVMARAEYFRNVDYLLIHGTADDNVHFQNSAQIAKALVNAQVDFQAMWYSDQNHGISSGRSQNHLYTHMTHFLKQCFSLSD
Protocol: This assay was adapted from the method described in Example 89 for detection of FAP target engagement enzyme activity in plasma. Plasma (anticoagulant K2EDTA) was used as the enzyme source: Human plasma (Pooled from AZ Biobank) and Mouse plasma (AZ AST Biobank) and Cynomolgus plasma (BioIVT, #NHP00PLK2FNN, lot CYN222895). 384-Well black fluotrack PS plates (Greiner 781076) were used. 20 μL diluted plasma (Cynomolgus and Human plasma dilution 1:40, Mouse plasma dilution 1:67) in buffer (PBS, 0.1% BSA) was added to 0.6 μL compounds (in DMSO). Compounds were tested using 10 CR, 3 fold dilution series from 500 nM FAC. Two replicates for each assay point were run on the same plate. A fluorescence blank read was taken before substrate addition. Substrate, Ala-Pro-AMC (ARI-3144) stock solution (20 mM in DMSO) was diluted in buffer (PBS, 0.1% BSA) to 150 μM concentration and 20 μL added giving 75 μM FAC. Plates were incubated for 40 min at rt in the dark. The plates were read on a Beckman Paradigm® reader with excitation 360 nm and emission 465 nm. Data were analyzed in Excel (IDBS XLfit Add-In) using a one site dose response model (4-parameter logistic fit).

hFAP = target: T2, hFAP (Homo sapiens, UniProt Q12884); experiment: biochemical
T2 sequence (Q12884 38-760): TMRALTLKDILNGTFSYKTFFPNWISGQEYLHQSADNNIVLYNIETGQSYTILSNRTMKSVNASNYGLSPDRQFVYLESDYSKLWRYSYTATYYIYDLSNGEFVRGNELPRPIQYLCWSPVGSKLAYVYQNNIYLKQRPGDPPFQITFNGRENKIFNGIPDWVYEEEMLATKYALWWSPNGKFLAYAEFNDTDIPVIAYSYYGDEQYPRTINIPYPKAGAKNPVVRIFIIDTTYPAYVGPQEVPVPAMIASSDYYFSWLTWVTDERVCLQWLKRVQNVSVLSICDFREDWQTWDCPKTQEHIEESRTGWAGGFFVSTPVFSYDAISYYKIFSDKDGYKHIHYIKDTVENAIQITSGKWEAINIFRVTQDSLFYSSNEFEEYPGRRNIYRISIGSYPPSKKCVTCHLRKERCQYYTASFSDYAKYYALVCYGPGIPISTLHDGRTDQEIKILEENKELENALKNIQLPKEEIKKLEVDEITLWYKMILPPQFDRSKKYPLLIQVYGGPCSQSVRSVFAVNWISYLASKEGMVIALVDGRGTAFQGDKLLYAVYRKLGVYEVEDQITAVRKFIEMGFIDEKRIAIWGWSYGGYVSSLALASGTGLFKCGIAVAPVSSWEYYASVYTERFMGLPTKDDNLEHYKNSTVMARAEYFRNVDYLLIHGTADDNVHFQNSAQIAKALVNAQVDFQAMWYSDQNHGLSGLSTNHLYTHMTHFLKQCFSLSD
Protocol: 384 low volume black plates (Greiner #784076) were used. 4 μL, 0.48 nM enzyme solution (100 mM Tris HCl, 100 mM NaCl, 0.05% Chaps, pH 7.4) was added to 40 nL compounds (in DMSO) at 10 CR, 3 fold dilution series from 50 μM FAC. Plates were incubated for 15 min at rt in dark. 4 μL, 40 μM substrate solution (100 mM Tris HCl, 100 mM NaCl, 0.05% Chaps, pH 7.4) was added to each well. Plates were centrifuged at 1000 rpm and incubated for 30 min at rt in dark. The plates were read on a PHERAstar® reader with excitation 340 nm and emission 460 nm. Data were analyzed in Genedata Screener®. IC50 values were determined by plotting % inhibition versus log compound concentration and using a one site dose response model.

hFAP (M39-A757) = target: T3, hFAP (M39-A757) (Homo sapiens, UniProt Q12884); experiment: biochemical
T3 sequence (Q12884 39-757): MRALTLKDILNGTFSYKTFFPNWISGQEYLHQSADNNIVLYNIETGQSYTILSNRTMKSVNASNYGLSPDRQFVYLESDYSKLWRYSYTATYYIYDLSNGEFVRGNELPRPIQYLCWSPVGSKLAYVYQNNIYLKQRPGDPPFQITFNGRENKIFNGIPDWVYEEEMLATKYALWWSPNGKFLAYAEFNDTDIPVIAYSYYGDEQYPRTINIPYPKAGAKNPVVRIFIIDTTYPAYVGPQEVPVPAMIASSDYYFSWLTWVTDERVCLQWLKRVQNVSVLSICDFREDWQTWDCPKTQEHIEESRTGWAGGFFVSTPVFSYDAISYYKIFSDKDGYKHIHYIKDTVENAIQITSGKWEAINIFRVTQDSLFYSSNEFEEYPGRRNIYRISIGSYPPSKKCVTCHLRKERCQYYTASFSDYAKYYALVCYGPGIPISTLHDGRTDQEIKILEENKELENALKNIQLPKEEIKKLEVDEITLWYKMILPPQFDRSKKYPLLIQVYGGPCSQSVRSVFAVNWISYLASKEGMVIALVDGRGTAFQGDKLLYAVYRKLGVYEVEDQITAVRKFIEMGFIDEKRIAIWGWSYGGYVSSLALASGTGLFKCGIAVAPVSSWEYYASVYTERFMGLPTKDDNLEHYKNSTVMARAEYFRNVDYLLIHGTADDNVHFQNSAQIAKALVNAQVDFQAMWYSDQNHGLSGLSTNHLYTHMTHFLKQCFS
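Wherever Kd is given: surface plasmon resonance direct binding to hFAP amine-coupled on a sensor chip, rising compound concentrations by single cycle kinetics, Kd from global fit of interaction models.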

Structure (SMILES) | IC50 (FAP Mouse Plasma) | IC50 (hFAP) | Kd (hFAP (M39-A757))
CC(C)(F)COc1ccc2nccc(C(=O)NCC(=O)N3CSC[C@H]3C#N)c2c1 [Example 3, (R)—N-(2-(4-Cyanothiazolidin-3-yl)-2-oxoethyl)-6-(2-fluoro-2-methylpropoxy)quinoline-4-carboxamide] | 0.5 nM | – | 0.062 nM
CC(C)(O)c1ccc2nccc(C(=O)NCC(=O)N3CSC[C@H]3C#N)c2c1 [Example 16, (R)—N-(2-(4-Cyanothiazolidin-3-yl)-2-oxoethyl)-6-(2-hydroxypropan-2-yl)quinoline-4-carboxamide] | 0.9 nM | 0.6 nM | 0.23 nM
COC(C)(C)c1ccc2nccc(C(=O)NCC(=O)N3CSC[C@H]3C#N)c2c1 [Example 18, (R)—N-(2-(4-Cyanothiazolidin-3-yl)-2-oxoethyl)-6-(2-methoxypropan-2-yl)quinoline-4-carboxamide] | 2.1 nM | 0.81 nM | 0.43 nM
CCOC1(c2ccc3nccc(C(=O)NCC(=O)N4CSC[C@H]4C#N)c3c2)CCOCC1 [Example 23, (R)—N-(2-(4-Cyanothiazolidin-3-yl)-2-oxoethyl)-6-(4-ethoxytetrahydro-2H-pyran-4-yl)quinoline-4-carboxamide] | 0.7 nM | 0.71 nM | 0.059 nM
N#C[C@@H]1CSCN1C(=O)CNC(=O)c1ccnc2ccc(C3(C#N)CC3)cc12 [Example 70, (R)-6-(1-Cyanocyclopropyl)-N-(2-(4-cyanothiazolidin-3-yl)-2-oxoethyl)quinoline-4-carboxamide] | 0.7 nM | 0.43 nM | 0.62 nM

Continued, values first:

IC50 (FAP Mouse Plasma) | IC50 (hFAP) | Kd (hFAP (M39-A757)) | Structure (SMILES)
1 nM | 0.63 nM | 0.35 nM | N#C[C@@H]1CSCN1C(=O)CNC(=O)c1ccnc2ccc(C3CCCCO3)cc12 (mixture of isomers) [Example 32, N-(2-((R)-4-Cyanothiazolidin-3-yl)-2-oxoethyl)-6-((RS)-tetrahydro-2H-pyran-2-yl)quinoline-4-carboxamide]
0.2 nM | – | 0.022 nM | CO[C@H]1CC[C@H](c2ccc3nccc(C(=O)NCC(=O)N4CSC[C@H]4C#N)c3c2)CC1 (single isomer, unassigned) [Example 78, N-(2-((R)-4-Cyanothiazolidin-3-yl)-2-oxoethyl)-6-((1r,4R*)-4-methoxycyclohexyl)quinoline-4-carboxamide]
0.5 nM | 0.45 nM | 0.068 nM | N#C[C@@H]1CSCN1C(=O)CNC(=O)c1ccnc2ccc(C3(O)CCOCC3)cc12 [Example 15, (R)—N-(2-(4-Cyanothiazolidin-3-yl)-2-oxoethyl)-6-(4-hydroxy-tetrahydro-2H-pyran-4-yl)quinoline-4-carboxamide]
0.5 nM | 0.23 nM | 0.056 nM | N#C[C@@H]1CSCN1C(=O)CNC(=O)c1ccnc2ccc(C3CCOCC3)cc12 [Example 20, (R)—N-(2-(4-Cyanothiazolidin-3-yl)-2-oxoethyl)-6-(tetrahydro-2H-pyran-4-yl)quinoline-4-carboxamide]
